Laboratory results: PubChem BioAssay (NCI)
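Step 1: Grow cells in 96-well plates. Step 2: Expose to compound for 48 hours at 5 concentrations. Step 3: Interpolate endpoints linearly; if unreached, use highest concentration. The concentration for 50% growth inhibition is given as GI50. Definition used: TGI = concentration required for complete inhibition of growth.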

How the values were obtained:
Test in all cases: NCI-60 cell line screen, 48 h
786-0 renal = system: 786-0 renal
A498 renal = system: A498 renal
A549 NSCLC = system: A549 NSCLC
ACHN renal = system: ACHN renal
BT-549 breast = system: BT-549 breast
CAKI-1 renal = system: CAKI-1 renal
CCRF-CEM leukemia = system: CCRF-CEM leukemia
COLO 205 colon = system: COLO 205 colon
DU-145 prostate = system: DU-145 prostate
EKVX NSCLC = system: EKVX NSCLC
HCC-2998 colon = system: HCC-2998 colon
HCT-116 colon = system: HCT-116 colon
HCT-15 colon = system: HCT-15 colon
HL-60(TB) leukemia = system: HL-60(TB) leukemia
HOP-62 NSCLC = system: HOP-62 NSCLC
HOP-92 NSCLC = system: HOP-92 NSCLC
HS 578T breast = system: HS 578T breast
HT29 colon = system: HT29 colon
IGROV1 ovarian = system: IGROV1 ovarian
K-562 leukemia = system: K-562 leukemia
KM12 colon = system: KM12 colon
LOX IMVI melanoma = system: LOX IMVI melanoma
M14 melanoma = system: M14 melanoma
MALME-3M melanoma = system: MALME-3M melanoma
MCF7 breast = system: MCF7 breast
MDA-MB-231 breast = system: MDA-MB-231 breast
MDA-MB-435 = system: MDA-MB-435
MOLT-4 leukemia = system: MOLT-4 leukemia
NCI-H226 lung = system: NCI-H226 lung
NCI-H23 lung = system: NCI-H23 lung
NCI-H460 lung = system: NCI-H460 lung
NCI-H522 lung = system: NCI-H522 lung
NCI/ADR-RES ovarian = system: NCI/ADR-RES ovarian
OVCAR-4 ovarian = system: OVCAR-4 ovarian
OVCAR-5 ovarian = system: OVCAR-5 ovarian
OVCAR-8 ovarian = system: OVCAR-8 ovarian
PC-3 prostate = system: PC-3 prostate
RPMI-8226 leukemia = system: RPMI-8226 leukemia
RXF 393 renal = system: RXF 393 renal
SF-268 CNS = system: SF-268 CNS
SF-295 CNS = system: SF-295 CNS
SF-539 CNS = system: SF-539 CNS
SK-MEL-2 melanoma = system: SK-MEL-2 melanoma
SK-MEL-28 melanoma = system: SK-MEL-28 melanoma
SK-MEL-5 melanoma = system: SK-MEL-5 melanoma
SK-OV-3 ovarian = system: SK-OV-3 ovarian
SN12C renal = system: SN12C renal
SNB-19 CNS = system: SNB-19 CNS
SNB-75 CNS = system: SNB-75 CNS
SR leukemia = system: SR leukemia
SW-620 colon = system: SW-620 colon
T-47D breast = system: T-47D breast
TK-10 renal = system: TK-10 renal
U251 CNS = system: U251 CNS
UACC-62 melanoma = system: UACC-62 melanoma
UO-31 renal = system: UO-31 renal

Oc1ccc(-c2nnc(SCc3ccc(O)c4ncccc34)n2-c2ccccc2)cc1 showed a GI50 (786-0 renal) of 770 nM, a TGI (786-0 renal) of 11100 nM and a GI50 (A498 renal) of 570 nM. For the same compound, the TGI (A498 renal) was 5840 nM, the GI50 (A549 NSCLC) was 614 nM and the TGI (A549 NSCLC) was over 100000 nM. For the same compound, the GI50 (ACHN renal) was 365 nM, the TGI (ACHN renal) was over 100000 nM and the GI50 (BT-549 breast) was 606 nM. The TGI (BT-549 breast) was over 25800 nM, the GI50 (CAKI-1 renal) was 448 nM and the TGI (CAKI-1 renal) was over 100000 nM. The GI50 (CCRF-CEM leukemia) was 327 nM, the TGI (CCRF-CEM leukemia) was over 100000 nM and the GI50 (COLO 205 colon) was 3020 nM. It also gave a TGI (COLO 205 colon) of over 100000 nM, a GI50 (DU-145 prostate) of 438 nM and a TGI (DU-145 prostate) of over 100000 nM. The GI50 (EKVX NSCLC) was 596 nM, the TGI (EKVX NSCLC) was over 100000 nM and the GI50 (HCC-2998 colon) was 620 nM. It also gave a TGI (HCC-2998 colon) of over 63400 nM, a GI50 (HCT-116 colon) of 158 nM and a TGI (HCT-116 colon) of over 100000 nM. The GI50 (HCT-15 colon) was 164 nM, the TGI (HCT-15 colon) was over 100000 nM and the GI50 (HL-60(TB) leukemia) was 292 nM. The TGI (HL-60(TB) leukemia) was 2730 nM, the GI50 (HOP-62 NSCLC) was 521 nM and the TGI (HOP-62 NSCLC) was over 100000 nM. It also gave a GI50 (HOP-92 NSCLC) of 28.9 nM, a TGI (HOP-92 NSCLC) of 845 nM and a GI50 (HS 578T breast) of 533 nM. It also gave a TGI (HS 578T breast) of over 100000 nM, a GI50 (HT29 colon) of 3850 nM and a TGI (HT29 colon) of over 100000 nM. It also gave a GI50 (IGROV1 ovarian) of 471 nM, a TGI (IGROV1 ovarian) of over 88300 nM and a GI50 (K-562 leukemia) of 290 nM. The TGI (K-562 leukemia) was over 100000 nM, the GI50 (KM12 colon) was 372 nM and the TGI (KM12 colon) was over 100000 nM. It also gave a GI50 (LOX IMVI melanoma) of 377 nM, a TGI (LOX IMVI melanoma) of 6930 nM and a GI50 (M14 melanoma) of 284 nM. The TGI (M14 melanoma) was 1570 nM, the GI50 (MALME-3M melanoma) was 902 nM and the TGI (MALME-3M melanoma) was over 29100 nM. The GI50 (MCF7 breast) was 140 nM, the TGI (MCF7 breast) was over 100000 nM and the GI50 (MDA-MB-231 breast) was 458 nM. The TGI (MDA-MB-231 breast) was over 100000 nM, the GI50 (MDA-MB-435) was 380 nM and the TGI (MDA-MB-435) was over 100000 nM. The GI50 (MOLT-4 leukemia) was 394 nM, the TGI (MOLT-4 leukemia) was over 100000 nM and the GI50 (NCI-H226 lung) was 718 nM. It also gave a TGI (NCI-H226 lung) of over 85800 nM, a GI50 (NCI-H23 lung) of 482 nM and a TGI (NCI-H23 lung) of over 100000 nM. For the same compound, the GI50 (NCI-H460 lung) was 152 nM, the TGI (NCI-H460 lung) was 6280 nM and the GI50 (NCI-H522 lung) was 330 nM. The TGI (NCI-H522 lung) was 2850 nM, the GI50 (NCI/ADR-RES ovarian) was 207 nM and the GI50 (OVCAR-4 ovarian) was 566 nM. It also gave a TGI (OVCAR-4 ovarian) of over 100000 nM, a GI50 (OVCAR-5 ovarian) of 1320 nM and a TGI (OVCAR-5 ovarian) of over 100000 nM. It also gave a GI50 (OVCAR-8 ovarian) of 233 nM, a TGI (OVCAR-8 ovarian) of over 100000 nM and a GI50 (PC-3 prostate) of 433 nM. For the same compound, the TGI (PC-3 prostate) was over 100000 nM, the GI50 (RPMI-8226 leukemia) was 391 nM and the TGI (RPMI-8226 leukemia) was over 100000 nM. The GI50 (RXF 393 renal) was 881 nM, the TGI (RXF 393 renal) was over 100000 nM and the GI50 (SF-268 CNS) was 465 nM. The TGI (SF-268 CNS) was over 100000 nM, the GI50 (SF-295 CNS) was 387 nM and the TGI (SF-295 CNS) was over 100000 nM. For the same compound, the GI50 (SF-539 CNS) was 528 nM, the TGI (SF-539 CNS) was over 44300 nM and the GI50 (SK-MEL-2 melanoma) was 828 nM. For the same compound, the TGI (SK-MEL-2 melanoma) was over 36900 nM, the GI50 (SK-MEL-28 melanoma) was 621 nM and the TGI (SK-MEL-28 melanoma) was over 100000 nM. It also gave a GI50 (SK-MEL-5 melanoma) of 371 nM, a TGI (SK-MEL-5 melanoma) of 1840 nM and a GI50 (SK-OV-3 ovarian) of 496 nM. For the same compound, the TGI (SK-OV-3 ovarian) was over 25900 nM, the GI50 (SN12C renal) was 348 nM and the TGI (SN12C renal) was over 100000 nM. For the same compound, the GI50 (SNB-19 CNS) was 385 nM, the TGI (SNB-19 CNS) was over 100000 nM and the GI50 (SNB-75 CNS) was 1500 nM. The TGI (SNB-75 CNS) was over 81000 nM, the GI50 (SR leukemia) was 325 nM and the TGI (SR leukemia) was over 100000 nM. The GI50 (SW-620 colon) was 397 nM, the TGI (SW-620 colon) was over 100000 nM and the GI50 (T-47D breast) was 600 nM. For the same compound, the TGI (T-47D breast) was over 100000 nM, the GI50 (TK-10 renal) was 502 nM and the TGI (TK-10 renal) was over 100000 nM. It also gave a GI50 (U251 CNS) of 194 nM, a TGI (U251 CNS) of over 100000 nM and a GI50 (UACC-62 melanoma) of 462 nM. For the same compound, the TGI (UACC-62 melanoma) was 3980 nM, the GI50 (UO-31 renal) was 261 nM and the TGI (UO-31 renal) was 4260 nM.
